{"source": "paper PMC11054528", "about": "“Evaluation of Physicochemical Properties of Ipsapirone Derivatives Based on Chromatographic and Chemometric Approaches” (Molecules, 2024)", "key": {"[1]": {"target": "T1, human serum albumin (HSA) (Homo sapiens, UniProt P02768)", "T1 sequence (P02768 25-609)": "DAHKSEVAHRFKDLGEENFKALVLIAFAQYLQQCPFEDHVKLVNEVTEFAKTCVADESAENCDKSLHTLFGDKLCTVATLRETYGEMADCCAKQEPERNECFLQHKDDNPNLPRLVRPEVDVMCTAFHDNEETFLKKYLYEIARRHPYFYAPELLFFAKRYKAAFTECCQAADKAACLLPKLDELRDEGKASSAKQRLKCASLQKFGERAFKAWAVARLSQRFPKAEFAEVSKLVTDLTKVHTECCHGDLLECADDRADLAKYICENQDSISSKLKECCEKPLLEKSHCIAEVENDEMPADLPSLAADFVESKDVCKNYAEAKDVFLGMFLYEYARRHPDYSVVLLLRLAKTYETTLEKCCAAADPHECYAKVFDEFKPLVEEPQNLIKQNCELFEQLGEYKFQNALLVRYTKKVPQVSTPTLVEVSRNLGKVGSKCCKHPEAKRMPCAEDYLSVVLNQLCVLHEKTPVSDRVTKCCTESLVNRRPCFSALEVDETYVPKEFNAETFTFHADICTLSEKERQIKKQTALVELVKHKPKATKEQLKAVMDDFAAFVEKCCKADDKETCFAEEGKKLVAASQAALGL", "conditions": "calibration mixture for HSA-HPLC, reference value; column head printed CHI C18; cited from earlier work"}, "[2]": {"conditions": "calibration mixture for IAM-HPLC, reference CHI value; column head printed CHI C18; cited from earlier work"}, "[3]": {"conditions": "calibration mixture for C18-HPLC, reference CHI value; cited from earlier work"}, "[4]": {"assay": "Fast gradient RP-HPLC on C18 column (CHI lipophilicity)", "format": "physicochemical", "conditions": "for CHIC18 pH = 2.6 / CHIC18 pH = 7.4 / CHIC18 pH = 10.6: C18 column; for CHI LogP: from chromatographically determined CHI on nonionized forms (pH 10.6), CHI LogP = 0.054 × CHI − 1.467", "from_the_text": "Considering the significant differences in the calculations obtained, the next step of our investigation considered the determination of lipophilicity using a chromatographic approach. Among the available protocols, the fast gradient approach developed by Valko was chosen because it enables the assessment of lipophilicity from a single chromatographic measurement. In addition, this approach enables the determination of the acid/basic properties of molecules through the addition of experiments under different pH conditions.\nTherefore, the CHI under pH10.6 can be considered and converted to chromatographically determined LogP, called CHI LogP. A cluster analysis (CA) was performed to compare chromatographically determined and calculated lipophilicity. A CA can be used for the visualization of similarities and differences between studied objects, in this case, lipophilic parameters. The obtained results clearly indicate that significant differences between theoretical and experimental data occurred, and they formed two separate groups (Figure 1). The differences are also visible on the calculated correlation matrix (Figure 2).\nFor RP-HPLC experiments, a C18 Hypersil GOLD^TM (50 mm × 4.6 mm; 5.0 µm with a guard column; Thermo Scientific, Waltham, MA, USA) column was applied. The column temperature was set to 40 °C. Three water solutions were used as mobile phase A: acetic acid at pH 2.6, […] at pH 7.4, and 50 mM ammonium acetate at pH 10.5. Mobile phase B was acetonitrile (ACN). The linear gradient from 2 to 98% ACN was applied from 0 to 5.25 min and held at 98% ACN for 1.75. The mobile phase flow rate was 1.5 mL/min throughout the experiment."}, "[5]": {"assay": "IAM-HPLC, immobilized artificial membrane chromatography (affinity to phospholipids)", "format": "physicochemical", "parameters": "scale not given here", "conditions": "IAM.PC.DD2 column, pH 7.4", "from_the_text": "In considering that lipophilicity is a known factor influencing passive diffusion across the BBB, this is an important observation. The affinity to phospholipids can also be determined using one-gradient protocols and the IAM column. CHIIAM can be used as a cut-off point to indicate the potential for promiscuous binding and interference with phospholipids.\nThe immobilized artificial membrane column (IAM.PC.DD2, 10 × 4.6 mm × 10.0 µm with a guard column (Regis Technologies; Morton Grove, IL, USA) was used for IAM-HPLC experiments. The column temperature was set to 30 °C. Similar to RP-HPLC, mobile phase A was a 50 mM ammonium acetate at pH 7.4, and mobile phase B was acetonitrile. The linear gradient from […] ACN was applied from 0 to 5.25 min and held at 98% ACN for 0.5 min at a constant flow rate of 1.5 mL/min."}, "[6]": {"target": "T1, human serum albumin (HSA)", "assay": "HSA-HPLC, biomimetic chromatography on Chiralpak HSA column", "format": "in vitro ADME", "parameters": "purchased Daicel Chiral Technologies, West Chester, PA, USA", "conditions": "for LogKHSA: pH 7.4; for %HSA: pH 7.4, recalculated from logKHSA", "from_the_text": "Utilizing columns modified by plasma proteins, such as human serum albumin (HSA), allows for estimating binding to plasma protein (PPB). Generally, PPB affects drug pharmacokinetics, including distribution, half-life, and clearance. While lipophilicity is a well-known factor in determining PPB, it should also be considered in early drug discovery. In general, more lipophilic compounds tend to have higher percentages of PP due to nonspecific interactions with proteins. However, hydrophilic compounds can also bind strongly to PP through […] and electrostatic interactions by binding in protein pockets.\nFor HSA-HPLC experiments, the column was Chiralpak® HSA (100 × 4 mm; 5 µm with safety guard column; Daicel Chiral Technologies, West Chester, PA, USA). The column temperature was set to 30 °C. The same phase A as in the IAM-HPLC case was used, and the mobile phase B was isopropanol (i-PrOH). The linear gradient from 0 to 20% i-PrOH was applied from 0 to 15 min, held at 20% i-PrOH for 12 min, and then returned to pure ammonium acetate solution. The mobile phase flow rate was 0.9 mL/min throughout the experiment. Three minutes of column recalibration was applied between each run. The retention times were collected at wavelengths between 190 and 300 nm, and the injection volume was 10 μL."}}, "data": [{"smiles": "CNC(=C[N+](=O)[O-])NCCSCc1csc(CN(C)C)n1", "note": "[Nizatidine]", "values": [{"measurement": "HSA binding (HSA-HPLC calibration)", "setting": "[1]", "result": 35.0, "unit": "%"}]}, {"smiles": "CC(=O)c1ccccc1", "note": "[Acetophenone]", "values": [{"measurement": "CHI (IAM-HPLC calibration)", "setting": "[2]", "result": 17.2}]}, {"smiles": "CCC(=O)c1ccccc1", "note": "[Propiophenone]", "values": [{"measurement": "CHI C18", "setting": "[3]", "result": 77.5}, {"measurement": "CHI (IAM-HPLC calibration)", "setting": "[2]", "result": 25.9}]}, {"smiles": "CCCCC(=O)c1ccccc1", "note": "[Valerophenone]", "values": [{"measurement": "CHI (IAM-HPLC calibration)", "setting": "[2]", "result": 37.3}]}, {"smiles": "CCCCCCC(=O)c1ccccc1", "note": "[Heptanophenone]", "values": [{"measurement": "CHI (IAM-HPLC calibration)", "setting": "[2]", "result": 45.7}]}, {"smiles": "CCCC(=O)c1ccccc1", "note": "[Butyrophenone]", "values": [{"measurement": "CHI (IAM-HPLC calibration)", "setting": "[2]", "result": 32.0}]}, {"smiles": "CC(=O)Nc1ccccc1", "note": "[Acetanilidine]", "values": [{"measurement": "CHI (IAM-HPLC calibration)", "setting": "[2]", "result": 11.5}]}, {"smiles": "CCCCCC(=O)c1ccccc1", "note": "[Hexanophenone]", "values": [{"measurement": "CHI (IAM-HPLC calibration)", "setting": "[2]", "result": 41.8}]}, {"smiles": "CC(=O)Nc1ccc(O)cc1", "note": "[Paracetamol]", "values": [{"measurement": "CHI (IAM-HPLC calibration)", "setting": "[2]", "result": 2.9}]}, {"smiles": "COc1ccccc1N1CCN(Cc2ccc(CN3C(=O)c4ccccc4S3(=O)=O)cc2)CC1", "note": "[molecule 26]", "values": [{"measurement": "CHIC18 pH = 2.6", "setting": "[4]", "result": 55.76}, {"measurement": "CHIC18 pH = 7.4", "setting": "[4]", "result": 100.20}, {"measurement": "CHIC18 pH = 10.6", "setting": "[4]", "result": 100.01}, {"measurement": "CHI LogP", "setting": "[4]", "result": 3.93}, {"measurement": "CHIIAM", "setting": "[5]", "result": 41.48}, {"measurement": "LogKHSA", "setting": "[6]", "result": 1.19}, {"measurement": "%HSA", "setting": "[6]", "result": 94.87, "unit": "%"}]}, {"smiles": "O=C1c2ccccc2S(=O)(=O)N1CCCCCCN1CCN(c2ccc(Cl)cc2)CC1", "note": "[molecule 17]", "values": [{"measurement": "CHIC18 pH = 2.6", "setting": "[4]", "result": 61.34}, {"measurement": "CHIC18 pH = 7.4", "setting": "[4]", "result": 106.56}, {"measurement": "CHIC18 pH = 10.6", "setting": "[4]", "result": 110.38}, {"measurement": "CHI LogP", "setting": "[4]", "result": 4.49}, {"measurement": "CHIIAM", "setting": "[5]", "result": 46.32}, {"measurement": "LogKHSA", "setting": "[6]", "result": 1.57}, {"measurement": "%HSA", "setting": "[6]", "result": 98.36, "unit": "%"}]}, {"smiles": "CCCCCCCC(=O)c1ccccc1", "note": "[Octanophenone]", "values": [{"measurement": "CHI (IAM-HPLC calibration)", "setting": "[2]", "result": 49.4}]}]}
